Measurements reported in patent publication US8318804B2 (priority 2007, dated 2012).
Values after ≈ are worked out from the molar mass of the structure shown.

Legend:
[1] = test system: A/WY/03/2003 (H3N2) influenza virus; format: cell-based, influenza A virus in MDCK cells
influenza virus = format: cell-based, influenza virus in MDCK cells
[2] = test system: influenza virus strain A/Wyoming/03/2003 (H3N2); format: cell-based, influenza A virus in MDCK cells
A/WY/03/2003 = format: cell-based, influenza A virus in MDCK cells

CCOC(=O)C([C@H]1C=C[C@@H](O)C1)[N+](=O)[O-] (stereo partly drawn) [EHCN, ethyl-(2R/S, 1′R,4′S)-2-(4′-hydroxy-2′-cyclopenten-1′-yl)-2-nitroacetate]
protection (cell viability assay) [1]: 75%
plaque formation / antiviral activity in plaque reduction assay (influenza virus): fewer and smaller plaques than the untreated wells
cytopathic effect (CPE) observed under the microscope [2]: did not present complete CPE
EC50 against A/WY/03/2003 (A/WY/03/2003): 4.5 mg/L (≈ 20.9 µM)
